Earlier results, collected in patent US8877779B2 (priority 2007, dated 2014).

Conditions: Proc. Natl. Acad. Sci. U.S.A. 97: 4938-4943, 2000

O=C1NCN(c2ccccc2)C12CCN([C@@H]1CC[C@H]3CCCc4cccc1c43)CC2 [Ro64-6198]
bioavailability (BA): 4%
